Measurements taken from the supplement of paper PMC10307832.

Legend:
Test in all cases: relative viability (nuclei count vs DMSO), 5 days (fraction); higher = more cells survive
Seliciclib = compound: CC[C@H](CO)Nc1nc(NCc2ccccc2)c2ncn(C(C)C)c2n1 [Seliciclib]
In short: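 Nuclei counted with MetaXpress define viability as the ratio of treated to vehicle wells, given as a median across plates. The lung cancer cell lines were in 1536-well plates, pinned with five √10-spaced library-drug doses and imaged at 4× after 5 days and Hoechst staining. Plates passed with control CV below 25% and at least one doubling.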

Seliciclib + Palbociclib = compound: CC[C@H](CO)Nc1nc(NCc2ccccc2)c2ncn(C(C)C)c2n1 [Seliciclib] + CC(=O)c1c(C)c2cnc(Nc3ccc(N4CCNCC4)cn3)nc2n(C2CCCC2)c1=O [Palbociclib] (partner 0.5 µM)
In short: (§1)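 A single step with final 0.05% Triton X-100, 1% formaldehyde and 1 ug/ml Hoechst fixed the cells and stained nuclei 5 days after treatment. Lung cancer cell lines in 1536-well plates had been treated by pin tool the day after seeding with one drug alone or a fixed anchor-drug dose plus five library-drug doses (not always all listed) in √10 steps, and nuclei were counted on 4× images. Relative viability is the ratio of nuclei in treated wells to nuclei in vehicle wells, taken as the median of duplicate plates.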

Seliciclib + Foretinib = compound: CC[C@H](CO)Nc1nc(NCc2ccccc2)c2ncn(C(C)C)c2n1 [Seliciclib] + COc1cc2c(Oc3ccc(NC(=O)C4(C(=O)Nc5ccc(F)cc5)CC4)cc3F)ccnc2cc1OCCCN1CCOCC1 [Foretinib] (partner 0.25 µM)
In short: as §1

Seliciclib + OSI-027 = compound: CC[C@H](CO)Nc1nc(NCc2ccccc2)c2ncn(C(C)C)c2n1 [Seliciclib] + COc1cccc2cc(-c3nc([C@H]4CC[C@H](C(=O)O)CC4)n4ncnc(N)c34)[nH]c12 [OSI-027] (partner 0.5 µM)
In short: as §1

Row | Cell Line | relative viability (Seliciclib; 0.08 µM) | relative viability (Seliciclib; 0.253 µM) | relative viability (Seliciclib; 0.8 µM) | relative viability (Seliciclib; 2.53 µM) | relative viability (Seliciclib; 8 µM) | relative viability (Seliciclib + Palbociclib; first compound 0.08 µM) | relative viability (Seliciclib + Palbociclib; first compound 0.253 µM) | relative viability (Seliciclib + Palbociclib; first compound 0.8 µM) | relative viability (Seliciclib + Palbociclib; first compound 2.53 µM) | relative viability (Seliciclib + Palbociclib; first compound 8 µM) | relative viability (Seliciclib + Foretinib; first compound 0.08 µM) | relative viability (Seliciclib + Foretinib; first compound 0.253 µM) | relative viability (Seliciclib + Foretinib; first compound 0.8 µM) | relative viability (Seliciclib + Foretinib; first compound 8 µM) | relative viability (Seliciclib + OSI-027; first compound 0.08 µM) | relative viability (Seliciclib + OSI-027; first compound 0.253 µM) | relative viability (Seliciclib + OSI-027; first compound 0.8 µM) | relative viability (Seliciclib + OSI-027; first compound 2.53 µM) | relative viability (Seliciclib + OSI-027; first compound 8 µM) | relative viability (Seliciclib + Foretinib; first compound 2.53 µM)
1 | 201T | 0.982 | 1.06 | 0.959 | 0.845 | 0.883 | 0.329 | 0.349 | 0.353 | 0.327 | 0.277 | 0.915 | 1.13 | 1.07 | 1.04 | 0.815 | 0.708 | 0.857 | 0.467 | 0.688 | –
2 | A-427 | 1.03 | 1.02 | 1.02 | 0.883 | 0.967 | 0.488 | 0.55 | 0.504 | 0.468 | 0.427 | 1.06 | 1.11 | 0.944 | 1.17 | 0.419 | 0.615 | 0.442 | 0.331 | 0.401 | 1.28
3 | ABC-1 | 0.995 | 1.12 | 1 | 0.615 | 0.582 | 0.673 | 0.565 | 0.863 | – | 0.562 | 1.04 | 0.987 | 1.17 | 1.2 | 0.611 | 0.378 | 0.431 | 0.32 | 0.387 | 1.02
4 | BEN | 1.04 | 0.82 | 1.03 | 0.907 | 0.817 | 0.476 | 0.469 | 0.473 | 0.499 | 0.453 | 0.615 | 0.576 | 0.746 | 0.592 | 0.295 | 0.287 | 0.343 | 0.309 | 0.276 | 0.621
5 | CAL-12T | 0.986 | 1.11 | 0.922 | 0.934 | 0.641 | 0.524 | 0.469 | 0.354 | 0.226 | 0.207 | 1.16 | 1.48 | 1.26 | 0.731 | 0.746 | 0.504 | 0.763 | 0.321 | 0.357 | 1.21
6 | COR-L23 | 1.02 | 1.15 | 1.06 | 1.01 | 0.821 | 0.298 | 0.315 | 0.262 | 0.19 | 0.165 | 0.928 | 1.22 | 0.981 | 0.738 | 0.808 | 0.604 | 0.7 | 0.671 | 0.627 | 0.99
7 | COR-L 105 | 0.932 | 1.14 | 0.924 | 0.851 | 0.902 | 0.432 | 0.392 | 0.276 | 0.365 | 0.397 | 1.11 | 0.8 | 1.02 | 1.02 | 0.722 | 0.622 | 0.754 | 0.56 | 0.646 | 1.18
8 | Calu-6 | 0.991 | 1.13 | 1.01 | 1.01 | 0.891 | – | – | – | – | – | 0.847 | 0.686 | 0.945 | 0.733 | – | – | – | – | – | 0.892
9 | ChaGo-K-1 | 1.05 | 0.995 | 0.923 | 0.935 | 0.912 | 0.915 | 0.957 | 0.755 | 0.875 | 0.805 | 0.877 | 0.862 | 0.892 | 0.823 | 0.663 | 0.367 | 0.587 | 0.356 | 0.451 | 0.979
10 | EBC-1 | 0.945 | 0.84 | 1.06 | 0.985 | 0.663 | – | – | – | – | – | 0.124 | 0.103 | 0.105 | 0.108 | – | – | – | – | – | 0.125
11 | EKVX | 0.946 | 1.03 | 0.862 | 0.923 | 0.844 | 0.365 | 0.305 | 0.311 | 0.16 | 0.204 | – | 0.887 | 0.533 | 0.77 | – | 0.781 | 0.661 | 0.565 | 0.537 | 0.756
12 | EMC-BAC-2 | 0.978 | 0.894 | 1.03 | 0.654 | 0.811 | 0.516 | 0.474 | 0.543 | 0.423 | 0.455 | 1.02 | 0.94 | 0.955 | 0.909 | 0.401 | 0.317 | 0.43 | 0.253 | 0.347 | 1.02
13 | EPLC-272H | 0.982 | 0.876 | 0.863 | 0.863 | 0.844 | 0.33 | 0.247 | 0.284 | 0.323 | 0.311 | 0.707 | 0.72 | 0.56 | 0.494 | 0.328 | 0.271 | 0.265 | 0.225 | 0.265 | 0.623
14 | H3255 | 1.07 | 0.94 | 1.08 | 0.965 | 0.888 | 0.344 | 0.314 | 0.306 | 0.26 | 0.293 | 0.808 | 1.01 | 0.51 | 0.895 | 0.596 | 0.642 | 0.626 | 0.532 | 0.579 | 0.806
15 | HARA | 0.927 | 1.08 | 1.01 | 0.945 | 0.844 | 0.284 | 0.282 | 0.229 | 0.259 | 0.163 | 0.95 | 1.06 | 0.943 | 0.714 | 0.496 | 0.22 | 0.378 | 0.377 | 0.325 | 0.982
16 | HCC-15 | 1.04 | 1.06 | 0.925 | 0.926 | 0.764 | 0.846 | 0.782 | 0.666 | 0.726 | 0.493 | 1.06 | 1.13 | 0.968 | 0.724 | 0.691 | 0.757 | 0.584 | 0.427 | 0.442 | 0.959
17 | HCC-44 | 1 | 1.05 | 1.01 | 0.931 | 0.899 | 0.969 | 1.02 | 0.994 | 0.883 | 0.889 | – | – | – | – | 0.488 | 0.451 | 0.508 | 0.302 | 0.508 | –
